Test results from patent US11726079B2, “Lighting systems and methods of using lighting systems for in vitro potency assay for Photofrin” (Concordia Laboratories, Inc., priority 2012, dated 2023).
“And” between values parts separate entries of the source, which are not always exact repeats. Equal values may be shown once. Marks after values point to notes of the source that are not given here.

Tested on: A549 human lung carcinoma cells
Experiment: In vitro potency assay for Photofrin®: A549 cells, 4 h drug absorption, wash, 10 min irradiation at 400-650 nm, 24 h, XTT viability, 4PL EC50
Format: cell-based
Design: key to EC50-XTT / EC50 STD / EC50 Test: EC50 as Photofrin concentration in μg/mL (4PL inflection point)
Conditions: for EC50 Test / Black plate EC50 / EC50 STD: in µg/mL; for Black plate EC50: black plate with black lid; for Clear Plate EC50: clear 96-well plate; for Potency of Test Sample / Potency of Test Sample, Mean / Experimental Potency: ratio EC50(standard)/EC50(test); for Potency of Test Sample / Potency of Test Sample, Mean: expected 0.5; for EC50 STD: standard sample (70 μg/mL high test drug concentration)
Experimental: Cell passaging of A549 cells is performed using fixed seeding densities to reduce assay variation resulting from cell culture conditions. […] Working in very low light conditions, Photofrin® is reconstituted in normal saline to 2.5 mg/mL and diluted further in culture medium at twice the desired final assay concentration, typically 140 μg/mL. A series of two-fold dilutions were then prepared from the 140 μg/mL solution and the diluted drug was added to the cells at 1:1 (v/v) according to the diagram shown in FIG. 11.
[…] The plate is then removed from the incubator, the drug is aspirated, the wells are washed with Dulbecco's phosphate buffered saline (DPBS) and fresh, pre-warmed medium is added to the wells. […] […] The wells covered with foil strips are important controls for the activity of Photofrin® in the absence of irradiation and the effect of light on the cells in the absence of drug.
The optical absorbance of the wells in column 1 (high drug concentration, no cells) is evaluated for absorption at 450 nm to ensure that the drug is not interfering with the XTT assay. The percent viability of each of the wells in columns 2-9 and 11 is calculated relative to the mean value of column 10 (cell control, no drug, no light). For each dose response obtained, a four parameter logistic (4PL) nonlinear regression analysis is performed of the percent viability versus the log-Photofrin® concentration. The point of inflection of the regression curve (C value) is defined as the EC50 and used in the calculation of relative potency. Curve fitting and calculation of the EC50 is performed with Softmax v5.4.2 (Molecular Devices, Inc.) or Prism v.5.04 (GraphPad, Software Inc.) software. The mean percent viability of columns 9 and 11 is also calculated.
• 1. Materials and Reagents • 1.1. A549 Human Lung Carcinoma (ATCC—Cat. No.: CCL-185) • 1.2. 25 cm^2 Flasks (Corning—Cat. No.: 431463, or equivalent) • 1.3. 75 cm^2 Flasks (Corning—Cat. No.: 431464, or equivalent) • 1.4. 50 mL tubes (Fisher Scientific—Cat. No. 17-512F, or equivalent) • 1.5. Hemacytometer • 1.6. RPMI-1640 (+) phenol red (Lonza—Cat. No.: 12-167F, or equivalent) • 1.7. HI-FBS (Gibco—Life Technologies—Cat No.: 10082-147, or equivalent) • 1.8. 200 mM L-Glutamine (Lonza—Cat. No.: 17-605E, or equivalent) • 1.9. 0.25% Trypsin-EDTA (Gibco—Cat. No.: 25200-056, or equivalent) • 2. Instruments • 2.1. Forma Scientific centrifuge with swinging bucket rotor (Model 5682, or equivalent) • 2.2. Water bath set at 37° C. • 2.3. […] Prepared Reagents • 3.1. RPMI-1640 Complete Media • 3.1.1. 500 mL bottle of RPMI-1640 basal media containing phenol red • 3.1.2. Add 50 mL HI-FBS • 3.1.3. Add 5.5 mL of 200 mM L-Glutamine • 4. Procedure • 4.1. Remove one vial of A549 lung carcinoma cells from liquid nitrogen storage and after ensuring that the vial is tightly closed, rapidly thaw vial by holding all but the top of the vial submerged in a 37° C. water bath until the vial contents begins to thaw but while ice still remains. • 4.2. Liberally spray the vial with 70% ethanol, wipe with tissue, and place into a laminar flow hood. • 4.3. Transfer the contents of the vial to a 50 mL conical tube containing 9 mL RPMI-1640 complete medium containing phenol red (Step 3.1) (hereafter referred to as complete medium in this method). • 4.4. Centrifuge the tube in a swing bucket rotor set at 1200 RPM (220 RCF) for five minutes at room temperature. • 4.5. Discard supernatant and gently flick the tube to resuspend the cells in the residual volume left in the tube. • 4.6. Add 5 mL complete medium, transfer the cell solution to a 25 cm^2 flask, and then place the flask into a 37° C. incubator with 5% CO2. • 4.7. Monitor the flask daily and when the cells reach approximately 80% confluence, remove the media, and wash the cells by adding 2 mL DPBS to the flask. Ensure that all cells are rinsed and discard the DPBS. • 4.8. Add 1 mL 0.25% trypsin-EDTA to prewash the cells, tip flask to coat all cells, and discard the trypsin. • 4.9. […]

[1] = seeding density 0.8 × 10^4 cells/well
[2] = seeding density 1.2 × 10^4 cells/well
[3] = seeding density 1.9 × 10^4 cells/well

For porfimer sodium [Photofrin®], the “EC50 Test” value (Test sample of theoretical potency 0.5) was 21.3 and 21.7, the “EC50 Test” value (Test sample of theoretical potency 2) was 5.16 and the “EC50 Test” value (Test sample of theoretical potency 4 (dissolved in one-fourth the nominal volume), confidence interval wide due to poor curve fitting) was 2.36*. The Test Sample EC50 (Test sample, 35 μg/mL high test concentration regressed as if 70 μg/mL, Plate 1 (placement Standard, Test; left to right dilution; controls in columns 9-11)) was 21.2 µg/mL, the Test Sample EC50 (Test sample, 35 μg/mL high test concentration regressed as if 70 μg/mL, Plate 2 (placement Test, Standard; left to right dilution; controls in columns 9-11)) was 22.2 µg/mL and the Test Sample EC50 (Test sample, 35 μg/mL high test concentration regressed as if 70 μg/mL, Plate 3 (right to left dilution; controls in columns 9-11)) was 21.5 µg/mL. It also gave a Test Sample EC50 (Test sample, 35 μg/mL high test concentration regressed as if 70 μg/mL, Plate 4 (placement Standard, Test; left to right dilution; controls in columns 9-11)) of 21.5 µg/mL, a Test Sample EC50 (Test sample, 35 μg/mL high test concentration regressed as if 70 μg/mL, Plate 5 (left to right dilution; controls in columns 2-4)) of 20.1 µg/mL and a Test Sample EC50, Mean (Test sample, 35 μg/mL high test concentration regressed as if 70 μg/mL, mean across Plates 1-5 of positional analysis) of 21.3 µg/mL. The “Black plate EC50” value (experiment PIN-004, nine point dose response 250-0.977 μg/m) was 8.08, the “Black plate EC50” value (experiment PIN-008, six point dose response 30.0-1.09 μg/mL) was 10.1 and 9.48 and 9.59 and the Black plate EC50, Mean (black plate, mean of PIN-004 and PIN-008 values) was 9.31 µg/mL. The “Clear Plate EC50” value (experiment PIN-004, nine point dose response 250-0.977 μg/m, in µg/mL (unit assumed)) was 1.87, the “Clear Plate EC50” value (experiment PIN-008, six point dose response 30.0-1.09 μg/mL, in µg/mL (unit assumed)) was 2.49 and 2.46 and 2.33 and the Clear Plate EC50, Mean (clear plate, mean of PIN-004 and PIN-008 values) was 2.29 µg/mL. For the same substance, the EC50-XTT (experiment PIN-009, XTT endpoint, in µg/mL (unit assumed)) was 9.48 and 9.42, the EC50-XTT, Mean (experiment PIN-009, XTT endpoint, mean) was 9.45 µg/mL and the “Potency of Test Sample” value (A549 cells at passage P10) was 0.556. The “Potency of Test Sample” value (A549 cells at passage P17) was 0.526, the “Potency of Test Sample” value (Inter-operator Assay, AB-1) was 0.465 and the “Potency of Test Sample” value (Inter-operator Assay, AB-2) was 0.564. The “Potency of Test Sample, Mean” value (Inter-operator Assay, mean of operator AB plates) was 0.515, the Potency of Test Sample, Mean (Inter-operator Assay, mean of operator KP plates) was 0.487 and the “Potency of Test Sample” value (Inter-operator Assay, operator KP, both plates KP-1) was 0.470 and 0.503. For the same substance, the “Potency of Test Sample” value (absorption time 3.5 hours) was 0.533, the “Potency of Test Sample” value (absorption time 4.0 hours) was 0.507 and the “Potency of Test Sample” value (absorption time 4.5 hours) was 0.573. For the same substance, the “Potency of Test Sample” value (irradiation time 8 minutes) was 0.490, the “Potency of Test Sample” value (irradiation time 9 minutes) was 0.476 and the “Potency of Test Sample” value (irradiation time 10 minutes) was 0.487. The “Potency of Test Sample” value (irradiation time 11 minutes) was 0.555, the “Potency of Test Sample” value (irradiation time 12 minutes) was 0.514 and the “Potency of Test Sample” value (operator AB Pilot Assay-1) was 0.411. For the same substance, the “Potency of Test Sample” value (operator AB Pilot Assay-2) was 0.537, the “Potency of Test Sample” value (post-irradiation incubation time 22 hours) was 0.549 and the “Potency of Test Sample” value (post-irradiation incubation time 24 hours) was 0.54. For the same substance, the “Potency of Test Sample” value (post-irradiation incubation time 26 hours) was 0.575, the “Potency of Test Sample” value (post-irradiation temperature 35° C.) was 0.448 and the “Potency of Test Sample” value (post-irradiation temperature 37° C. (nominal, two experiments)) was 0.543 and 0.495. The “Potency of Test Sample” value (post-irradiation temperature 39° C.) was 0.516, the “Potency of Test Sample” value [1] was 0.521 and the “Potency of Test Sample” value [2] was 0.391. The “Potency of Test Sample” value [3] was 0.526, the “Experimental Potency” value (theoretical potency 0.5) was 0.526 and 0.516 and the “Experimental Potency” value (theoretical potency 2) was 2.05. The “Experimental Potency” value (theoretical potency 4, wide confidence interval on EC50) was 4.36*, the “Mean Potency” value (ratio of the EC50(standard)/EC50(test), positional analysis, Plates 1-5, Test sample is Standard diluted two-fold) was 0.516 and the “EC50 STD” value (assayed with Test sample of theoretical potency 0.25) was 11.6. The “EC50 STD” value (assayed with Test sample of theoretical potency 2) was 10.6, the “EC50 STD” value (assayed with Test sample of theoretical potency 4) was 10.3 and the “EC50 STD” value [1] was 11.0. For the same substance, the “EC50 STD” value [2] was 10.9, the “EC50 STD” value [3] was 11.2 and the “killing of the cells” value (treatment of cells followed by irradiation at 400-650 nm) was “dose-dependent killing of the cells”.
